Experimental data taken from the kinase profiling compilation of Christmann-Franck et al. (2016).

Legend:
Assay in all cases: radiometric filter-binding kinase assay
MYLK (human) = MYLK (human) (UniProt Q15746)
STK16 (human) = STK16 (human) (UniProt O75716)
TEK (human) = TEK (human) (UniProt Q02763)
PRKCG (human) = PRKCG (human) (UniProt P05129)
PTK6 (human) = PTK6 (human) (UniProt Q13882)
ZAP70 (human) = ZAP70 (human) (UniProt P43403)
STK33 (human) = STK33 (human) (UniProt Q9BYT3)
ABL1 (human) = ABL1 (human) (UniProt P00519)
Sequence of ABL1 (human) (P00519 whole entry, looked up): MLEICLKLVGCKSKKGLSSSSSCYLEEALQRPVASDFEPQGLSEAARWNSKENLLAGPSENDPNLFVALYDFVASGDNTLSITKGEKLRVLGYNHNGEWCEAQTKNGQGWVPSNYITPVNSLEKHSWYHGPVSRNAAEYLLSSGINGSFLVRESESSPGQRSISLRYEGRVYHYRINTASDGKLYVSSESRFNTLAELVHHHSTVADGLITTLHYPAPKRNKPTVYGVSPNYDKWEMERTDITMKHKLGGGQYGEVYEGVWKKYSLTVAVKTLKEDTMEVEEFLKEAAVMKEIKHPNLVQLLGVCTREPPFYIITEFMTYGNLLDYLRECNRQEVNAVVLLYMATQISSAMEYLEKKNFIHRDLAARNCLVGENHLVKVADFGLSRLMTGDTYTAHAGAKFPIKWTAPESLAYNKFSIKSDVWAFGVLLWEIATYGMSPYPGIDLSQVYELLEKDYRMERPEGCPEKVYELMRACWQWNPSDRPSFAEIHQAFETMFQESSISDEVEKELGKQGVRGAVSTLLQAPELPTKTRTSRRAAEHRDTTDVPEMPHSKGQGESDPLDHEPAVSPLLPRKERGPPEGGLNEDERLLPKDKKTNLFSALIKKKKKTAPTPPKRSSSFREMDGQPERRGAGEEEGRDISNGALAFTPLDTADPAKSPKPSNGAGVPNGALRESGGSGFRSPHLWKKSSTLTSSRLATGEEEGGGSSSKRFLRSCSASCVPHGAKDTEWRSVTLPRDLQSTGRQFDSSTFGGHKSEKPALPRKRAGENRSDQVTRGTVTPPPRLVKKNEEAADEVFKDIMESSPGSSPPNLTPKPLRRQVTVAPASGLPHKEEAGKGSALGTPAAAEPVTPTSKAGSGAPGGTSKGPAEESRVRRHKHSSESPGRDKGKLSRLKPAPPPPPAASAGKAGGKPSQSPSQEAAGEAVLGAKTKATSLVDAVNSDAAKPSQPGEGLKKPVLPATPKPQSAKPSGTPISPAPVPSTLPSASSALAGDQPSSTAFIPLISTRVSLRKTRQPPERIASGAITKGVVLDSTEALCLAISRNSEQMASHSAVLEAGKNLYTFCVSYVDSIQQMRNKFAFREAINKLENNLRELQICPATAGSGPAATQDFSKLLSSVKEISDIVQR

TLK1 (human) = TLK1 (human) (UniProt Q9UKI8)
Sequence of TLK1 (human) (Q9UKI8 whole entry, looked up): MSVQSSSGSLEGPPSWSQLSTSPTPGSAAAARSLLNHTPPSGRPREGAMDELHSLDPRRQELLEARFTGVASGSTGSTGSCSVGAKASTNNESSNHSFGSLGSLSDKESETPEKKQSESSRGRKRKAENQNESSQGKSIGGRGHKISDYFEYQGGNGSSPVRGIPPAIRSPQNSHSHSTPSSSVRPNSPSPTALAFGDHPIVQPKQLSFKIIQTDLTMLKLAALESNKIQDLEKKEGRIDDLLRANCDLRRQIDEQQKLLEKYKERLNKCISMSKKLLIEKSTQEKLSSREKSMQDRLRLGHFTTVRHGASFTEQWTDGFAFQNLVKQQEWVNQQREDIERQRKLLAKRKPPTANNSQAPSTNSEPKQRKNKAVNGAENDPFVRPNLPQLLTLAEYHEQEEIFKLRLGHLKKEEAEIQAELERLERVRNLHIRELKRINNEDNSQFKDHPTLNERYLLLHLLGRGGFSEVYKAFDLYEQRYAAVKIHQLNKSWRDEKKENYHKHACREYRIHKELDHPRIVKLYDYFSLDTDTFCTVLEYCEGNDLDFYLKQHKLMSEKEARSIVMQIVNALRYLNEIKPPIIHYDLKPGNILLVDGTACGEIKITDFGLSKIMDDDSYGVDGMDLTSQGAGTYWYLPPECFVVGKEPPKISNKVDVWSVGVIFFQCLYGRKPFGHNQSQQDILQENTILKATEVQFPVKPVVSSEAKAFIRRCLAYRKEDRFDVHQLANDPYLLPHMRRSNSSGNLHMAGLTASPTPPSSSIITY

IRAK1 (human) = IRAK1 (human) (UniProt P51617)
Sequence of IRAK1 (human) (P51617 whole entry, looked up): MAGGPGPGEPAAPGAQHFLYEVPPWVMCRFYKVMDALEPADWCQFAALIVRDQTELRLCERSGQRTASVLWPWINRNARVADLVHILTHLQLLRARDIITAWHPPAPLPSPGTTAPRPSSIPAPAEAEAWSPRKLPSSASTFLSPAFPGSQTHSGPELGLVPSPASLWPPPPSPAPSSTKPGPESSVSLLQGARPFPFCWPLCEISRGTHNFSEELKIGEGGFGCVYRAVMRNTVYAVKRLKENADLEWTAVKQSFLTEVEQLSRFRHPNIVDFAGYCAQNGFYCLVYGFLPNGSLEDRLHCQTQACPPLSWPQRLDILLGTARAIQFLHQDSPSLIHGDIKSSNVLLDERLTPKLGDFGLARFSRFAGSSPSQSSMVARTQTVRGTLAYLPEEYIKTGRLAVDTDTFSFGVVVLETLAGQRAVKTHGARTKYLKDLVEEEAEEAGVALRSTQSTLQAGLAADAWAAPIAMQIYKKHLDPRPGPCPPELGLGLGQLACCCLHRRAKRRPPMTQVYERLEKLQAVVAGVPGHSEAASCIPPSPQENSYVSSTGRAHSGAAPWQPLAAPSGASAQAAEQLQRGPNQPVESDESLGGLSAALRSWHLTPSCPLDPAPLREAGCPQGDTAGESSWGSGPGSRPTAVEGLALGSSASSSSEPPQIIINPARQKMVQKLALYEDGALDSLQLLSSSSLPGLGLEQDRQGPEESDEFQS

[1] = system: OXSR1 (human), O95747 [T185E]
Sequence of OXSR1 (human), O95747 [T185E] (O95747 whole entry T185E, looked up): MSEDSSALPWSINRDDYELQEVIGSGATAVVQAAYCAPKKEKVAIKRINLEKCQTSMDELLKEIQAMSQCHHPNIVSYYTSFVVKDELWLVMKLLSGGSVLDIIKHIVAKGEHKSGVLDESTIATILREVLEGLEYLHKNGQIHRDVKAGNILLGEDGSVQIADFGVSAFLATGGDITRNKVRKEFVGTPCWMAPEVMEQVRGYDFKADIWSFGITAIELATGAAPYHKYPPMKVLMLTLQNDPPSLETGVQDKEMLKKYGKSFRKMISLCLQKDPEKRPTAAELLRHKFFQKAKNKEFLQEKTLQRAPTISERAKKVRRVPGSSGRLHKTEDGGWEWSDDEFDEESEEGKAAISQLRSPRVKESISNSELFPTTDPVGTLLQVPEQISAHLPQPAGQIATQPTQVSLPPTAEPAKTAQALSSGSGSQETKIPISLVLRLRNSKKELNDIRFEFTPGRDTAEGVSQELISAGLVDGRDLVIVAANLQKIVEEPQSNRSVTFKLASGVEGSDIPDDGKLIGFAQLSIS

EIF2AK3 (human) = EIF2AK3 (human) (UniProt Q9NZJ5)

Sequence of PTK6 (human) (Q13882 whole entry, looked up): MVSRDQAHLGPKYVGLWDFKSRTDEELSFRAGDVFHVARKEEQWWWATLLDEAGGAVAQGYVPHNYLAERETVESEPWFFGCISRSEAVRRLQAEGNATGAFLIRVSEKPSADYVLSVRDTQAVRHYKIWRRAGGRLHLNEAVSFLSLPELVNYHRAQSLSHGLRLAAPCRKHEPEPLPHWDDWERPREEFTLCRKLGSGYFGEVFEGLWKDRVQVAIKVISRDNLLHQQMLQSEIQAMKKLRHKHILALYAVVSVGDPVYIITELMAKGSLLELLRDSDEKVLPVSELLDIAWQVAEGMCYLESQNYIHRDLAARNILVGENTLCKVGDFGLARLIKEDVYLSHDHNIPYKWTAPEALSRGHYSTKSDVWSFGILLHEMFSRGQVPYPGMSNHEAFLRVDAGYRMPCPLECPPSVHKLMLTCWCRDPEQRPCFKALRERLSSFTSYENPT
Sequence of STK33 (human) (Q9BYT3 whole entry, looked up): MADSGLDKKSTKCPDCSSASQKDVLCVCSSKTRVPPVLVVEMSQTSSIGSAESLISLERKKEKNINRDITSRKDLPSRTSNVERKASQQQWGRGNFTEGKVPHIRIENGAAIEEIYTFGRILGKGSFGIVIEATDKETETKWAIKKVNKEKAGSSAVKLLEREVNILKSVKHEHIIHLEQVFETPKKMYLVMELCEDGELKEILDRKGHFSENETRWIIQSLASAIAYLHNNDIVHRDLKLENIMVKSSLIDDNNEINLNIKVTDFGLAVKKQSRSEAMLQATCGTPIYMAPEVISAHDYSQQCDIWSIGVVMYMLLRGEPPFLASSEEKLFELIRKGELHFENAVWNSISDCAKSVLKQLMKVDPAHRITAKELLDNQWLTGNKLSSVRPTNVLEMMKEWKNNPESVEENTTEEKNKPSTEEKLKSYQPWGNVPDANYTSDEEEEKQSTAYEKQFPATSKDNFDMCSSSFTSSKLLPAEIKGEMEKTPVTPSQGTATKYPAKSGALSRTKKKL
Sequence of ZAP70 (human) (P43403 whole entry, looked up): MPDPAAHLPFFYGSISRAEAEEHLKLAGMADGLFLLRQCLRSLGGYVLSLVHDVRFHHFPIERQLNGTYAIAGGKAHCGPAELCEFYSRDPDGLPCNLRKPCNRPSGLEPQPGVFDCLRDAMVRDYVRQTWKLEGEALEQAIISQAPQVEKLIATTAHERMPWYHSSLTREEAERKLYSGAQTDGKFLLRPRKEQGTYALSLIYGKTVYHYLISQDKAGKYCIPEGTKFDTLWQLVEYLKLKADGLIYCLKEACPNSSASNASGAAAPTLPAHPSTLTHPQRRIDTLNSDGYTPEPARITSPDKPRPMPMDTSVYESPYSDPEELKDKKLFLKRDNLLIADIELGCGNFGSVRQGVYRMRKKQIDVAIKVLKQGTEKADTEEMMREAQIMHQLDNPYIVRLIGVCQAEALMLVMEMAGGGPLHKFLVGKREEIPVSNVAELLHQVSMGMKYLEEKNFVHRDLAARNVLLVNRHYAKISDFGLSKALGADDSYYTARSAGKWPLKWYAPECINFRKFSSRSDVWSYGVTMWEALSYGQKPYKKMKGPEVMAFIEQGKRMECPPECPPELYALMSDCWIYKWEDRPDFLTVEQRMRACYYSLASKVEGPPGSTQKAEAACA
Sequence of STK16 (human) (O75716 whole entry, looked up): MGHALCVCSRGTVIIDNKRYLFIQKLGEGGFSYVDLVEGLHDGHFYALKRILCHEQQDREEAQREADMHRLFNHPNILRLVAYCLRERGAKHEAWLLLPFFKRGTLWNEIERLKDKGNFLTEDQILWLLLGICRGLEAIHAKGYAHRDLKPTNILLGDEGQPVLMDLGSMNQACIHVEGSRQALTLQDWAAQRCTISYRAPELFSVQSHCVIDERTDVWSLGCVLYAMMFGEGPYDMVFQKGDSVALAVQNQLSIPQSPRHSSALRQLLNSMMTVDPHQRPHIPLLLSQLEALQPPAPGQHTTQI

SMILES | residual activity (MYLK (human); compound 0.1 µM) [%] | residual activity (MYLK (human); compound 1.0 µM) [%] | residual activity (MYLK (human); compound 10.0 µM) [%] | residual activity (STK16 (human); compound 1.0 µM) [%] | residual activity (STK16 (human); compound 10.0 µM) [%] | residual activity (TEK (human); compound 0.1 µM) [%] | residual activity (TEK (human); compound 1.0 µM) [%] | residual activity (TEK (human); compound 10.0 µM) [%] | residual activity (PRKCG (human); compound 0.1 µM) [%] | residual activity (PRKCG (human); compound 1.0 µM) [%] | residual activity (PRKCG (human); compound 10.0 µM) [%] | residual activity (PTK6 (human); compound 0.1 µM) [%] | residual activity (PTK6 (human); compound 1.0 µM) [%] | residual activity (PTK6 (human); compound 10.0 µM) [%] | residual activity (ZAP70 (human); compound 0.1 µM) [%] | residual activity (ZAP70 (human); compound 1.0 µM) [%] | residual activity (ZAP70 (human); compound 10.0 µM) [%] | residual activity (STK33 (human); compound 0.1 µM) [%] | residual activity (STK33 (human); compound 10.0 µM) [%] | residual activity (ABL1 (human); compound 10.0 µM) [%] | also measured
CCOC(=O)c1ccc(N2NC(=O)/C(=C/c3ccc([N+](=O)[O-])o3)C2=O)cc1 |  |  | 109 |  |  |  |  | 128 |  |  | 99 |  |  | 79 |  |  | 95 |  | 119 | 107 | residual activity (TLK1 (human); compound 10.0 µM): 108%; residual activity (IRAK1 (human); compound 10.0 µM): 84%; residual activity ([1]; compound 10.0 µM): 115%; residual activity (EIF2AK3 (human); compound 10.0 µM): 83%
COc1cc(O)c2c(c1)/C=C/C[C@H](O)[C@H](O)C(=O)/C=C\C[C@H](C)OC2=O | 108 | 80 |  | 101 |  | 103 | 93 |  | 87 | 87 |  | 65 | 25 |  | 110 | 96 |  | 120 |  |  | residual activity (STK16 (human); compound 0.1 µM): 103%; residual activity (STK33 (human); compound 1.0 µM): 85%; residual activity (ABL1 (human); compound 0.1 µM): 108%; residual activity (ABL1 (human); compound 1.0 µM): 71%
c1ccc2c(-c3cnn4cc(-c5ccc(N6CCNCC6)cc5)cnc34)ccnc2c1 | 104 | 107 | 60 | 98 | 84 | 102 | 86 | 30 | 99 | 97 | 92 | 78 | 21 | 5 | 86 | 69 | 101 | 81 | 11 | 4 | residual activity (STK16 (human); compound 0.1 µM): 97%; residual activity (STK33 (human); compound 1.0 µM): 44%; residual activity (ABL1 (human); compound 0.1 µM): 43%; residual activity (ABL1 (human); compound 1.0 µM): 6%
O=C(NCCCNc1nc(Nc2cccc(CN3CCOCC3)c2)ncc1C1CC1)C1CCC1 | 87 | 103 |  | 104 |  | 95 | 81 |  | 88 | 98 |  | 96 | 110 |  | 92 | 94 |  | 80 |  |  | residual activity (TLK1 (human); compound 0.1 µM): 90%; residual activity (TLK1 (human); compound 1.0 µM): 108%; residual activity (IRAK1 (human); compound 0.1 µM): 96%; residual activity (IRAK1 (human); compound 1.0 µM): 79%; residual activity ([1]; compound 0.1 µM): 83%; residual activity ([1]; compound 1.0 µM): 94%; residual activity (STK33 (human); compound 1.0 µM): 52%; residual activity (EIF2AK3 (human); compound 0.1 µM): 92%; residual activity (EIF2AK3 (human); compound 1.0 µM): 86%

Continued, in another order:

residual activity (MYLK (human); compound 0.1 µM) [%] | residual activity (MYLK (human); compound 1.0 µM) [%] | residual activity (MYLK (human); compound 10.0 µM) [%] | residual activity (STK16 (human); compound 1.0 µM) [%] | residual activity (STK16 (human); compound 10.0 µM) [%] | residual activity (TEK (human); compound 0.1 µM) [%] | residual activity (TEK (human); compound 1.0 µM) [%] | residual activity (TEK (human); compound 10.0 µM) [%] | residual activity (PRKCG (human); compound 0.1 µM) [%] | residual activity (PRKCG (human); compound 1.0 µM) [%] | residual activity (PRKCG (human); compound 10.0 µM) [%] | residual activity (PTK6 (human); compound 0.1 µM) [%] | residual activity (PTK6 (human); compound 1.0 µM) [%] | residual activity (PTK6 (human); compound 10.0 µM) [%] | residual activity (ZAP70 (human); compound 0.1 µM) [%] | residual activity (ZAP70 (human); compound 1.0 µM) [%] | residual activity (ZAP70 (human); compound 10.0 µM) [%] | residual activity (STK33 (human); compound 0.1 µM) [%] | residual activity (STK33 (human); compound 10.0 µM) [%] | residual activity (ABL1 (human); compound 10.0 µM) [%] | SMILES | also measured
90 | 95 | 91 | 98 | 100 | 141 | 118 | 113 | 101 | 109 | 96 | 104 | 93 | 104 | 116 | 106 | 92 | 100 | 89 | 109 | CCCCCc1ccc(/C=C/[C@H](O)[C@@H](CO)NC)cc1 | residual activity (STK16 (human); compound 0.1 µM): 104%; residual activity (STK33 (human); compound 1.0 µM): 100%; residual activity (ABL1 (human); compound 0.1 µM): 110%; residual activity (ABL1 (human); compound 1.0 µM): 106%
 |  | 112 |  | 94 |  |  | 112 |  |  | 98 |  |  | 101 |  |  | 85 |  | 97 | 111 | O=S(=O)(c1ccc(F)c2nonc12)N1CCN(c2ncc(C(F)(F)F)cc2Cl)CC1 | 
 |  | 103 |  | 102 |  |  | 98 |  |  | 114 |  |  | 96 |  |  | 84 |  | 98 | 101 | CC(C)C[C@H](NC(=O)CNC(=O)c1cc(Cl)ccc1Cl)B1OC(=O)CC(CC(=O)O)(C(=O)O)O1 (some centres not stated) | 
